The values below are quoted from earlier work in US11744789B2, “Method for dyeing keratinous material, comprising the use of an organosilicon compound, a colored effect pigment and a sealing reagent III” (Henkel AG & Co. KGaA, priority 2019, dated 2023).

For this series the following is noted: for solubility in water: 25° C.

Consider `O=S(=O)(O)c1ccc(N=Nc2c(O)ccc3ccccc23)cc1` [Acid Orange 7, 4-[(2-hydroxy-1-naphthyl)azo]benzene sulphonate], for which the solubility in water entry is listed as “more than 7 g/L”.
`O=[N+]([O-])c1cc([N+](=O)[O-])c2ccc(S(=O)(=O)O)cc2c1O` [Acid Yellow 9, 8-hydroxy-5,7-dinitro-2-naphthalenesulfonic acid]: the solubility in water result is given as “above 40 g/L”.
For `O=C(O)C1=NN(c2ccc(S(=O)(=O)O)cc2)C(=O)C1N=Nc1ccc(S(=O)(=O)O)cc1` (stereo not drawn) [Acid Yellow 23, 4,5-dihydro-5-oxo-1-(4-sulfophenyl)-4-((4-sulfophenyl)azo)-1H-pyrazole-3-carboxylic acid], where the note is “at 25° C.”, the “solubility in water (in words)” value is “highly soluble in water”.
